From ChEMBL document CHEMBL3792329, “Exploration of 3-methylisoquinoline-4-carbonitriles as protein kinase A inhibitors of Plasmodium falciparum” (Bioorg Med Chem, 2016)

How the values were obtained:
[1] = Inhibition of asexual blood stage of Plasmodium falciparum 3D7 PKA assessed as inhibition of parasite proliferation after 72 hrs by Malstat assay
[2] = Inhibition of asexual blood stage of chloroquine-resistant Plasmodium falciparum W2mef PKA assessed as inhibition of parasite proliferation after 72 hrs by Malstat assay

Cc1nc(N)c2ccccc2c1C#N
IC50 [1]: 34 µM | IC50 [2]: 36 µM

Cc1nc(NCc2ccccc2)c2ccccc2c1C#N
IC50 [1]: > 50 µM | IC50 [2]: > 50 µM

CCCCNc1nc(CC)c(C#N)c2ccccc12
IC50 [1]: 25 µM | IC50 [2]: 22 µM

Cc1nc(NC(C)(C)C)c2ccccc2c1C#N
IC50 [1]: 5.2 µM | IC50 [2]: 4.2 µM

CCCNc1nc(C)c(C#N)c2ccccc12
IC50 [1]: > 50 µM | IC50 [2]: > 50 µM

CCNc1nc(C)c(C#N)c2ccccc12
IC50 [1]: > 50 µM | IC50 [2]: > 50 µM

CCCCNc1nc(C)c(C(N)=O)c2ccccc12
IC50 [1]: > 50 µM

Cc1nc(NC2CCCCC2)c2ccccc2c1C#N
IC50 [1]: > 50 µM | IC50 [2]: > 50 µM

CCCCCNc1nc(C)c(C#N)c2ccccc12
IC50 [1]: 8.6 µM | IC50 [2]: 9.6 µM

CCCCOc1nc(C)c(C#N)c2ccccc12
IC50 [1]: 36 µM | IC50 [2]: 16 µM

CCCCNc1nc(C)c(C#N)c2ccccc12
IC50 [1]: 34 µM | IC50 [2]: 33 µM

Cc1nc(NCC(C)C)c2ccccc2c1C#N
IC50 [1]: > 50 µM | IC50 [2]: 28 µM
